According to patent publication US20250283073A1 (ORNA THERAPEUTICS, INC., priority 2021, published 2025):
Where two headings read alike, the source gives them in different places.

B1: caprine kobuvirus: "IRES sourced from the indicated virus" in circular RNA constructs "encoding anti-murine CD19 CAR" (nucleic acid)
DNA: GTGGCCACGCCCGGGCCACCGATACTTCCCTTCACTCCTTCGGGACTGTTGGGGAGGAACACAACAGGGCTCCCCTGTTTTCCCATTCCTTCCCCCTTTTCCCAACCCCAACCGCCGTATCTGGTGGCGGCAAGACACACGGGTCTTTCCCTCTAAAGCACAATTGTGTGTGTGTCCCAGGTCCTCCTGCGTACGGTGCGGGAGTGCTCCCACCCAACTGTTGTAAGCCTGTCCAACGCGTCGTCCTGGCAAGACTATGACGTCGCATGTTCCGCTGCGGATGCCGACCGGGTAACCGGTTCCCCAGTGTGTGTAGTGCGATCTTCCAGGTCCTCCTGGTTGGCGTTGTCCAGAAACTGCTTCAGGTAAGTGGGGTGTGCCCAATCCCTACAAAGGTTGATTCTTTCACCACCTTAGGAATGCTCCGGAGGTACCCCAGCAACAGCTGGGATCTGACCGGAGGCTAATTGTCTACGGGTGGTGTTTCCTTTTTCTTTTCACACAACTCTACTGCGTACAACTCACTGACTATCCACTTGCTCTGTCACG
modifications: Description of Unknown: CK1.4; Caprine Kobuvirus variant sequence

Tests used:
[1] = cited from earlier work
[2] = RNA encapsulation / entrapment by Ribogreen assay; assay type: physicochemical; settings: LNPs with circular RNA, named by ionizable lipid
Description: A QUANT-ITT- RIBOGREEN® RNA assay (Invitrogen Corporation Carlsbad, CA) can be used to evaluate the encapsulation of circRNA by the nanoparticle composition. The samples are diluted to a concentration of approximately 5 μg/mL or 1 μg/mL in a TE buffer solution (10 mM Tris-HCl, 1 mM EDTA, pH 7.5). 50 μL of the diluted samples are transferred to a polystyrene 96 well plate and either 50 μL of TE buffer or 50 μL of a 2-4% Triton X-100 solution is added to the wells. The plate is incubated at a temperature of 37° C. for 15 minutes. The RIBOGREEN® reagent is diluted 1:100 or 1:200 in TE buffer, and 100 μL of this solution is added to each well. The fluorescence intensity can be measured using a fluorescence plate reader (Wallac Victor 1420 Multilabel Counter; Perkin Elmer, Waltham, MA) at an excitation wavelength of, for example, about 480 nm and an emission wavelength of, for example, about 520 nm. The fluorescence values of the reagent blank are subtracted from that of each of the samples and the percentage of free circRNA is determined by dividing the fluorescence intensity of the intact sample (without addition of Triton X-100) by the fluorescence value of the disrupted sample (caused by the addition of Triton X-100). C.
For transfer vehicle compositions including RNA, a QUANT-IT- RIBOGREEN® RNA assay (Invitrogen Corporation Carlsbad, CA) can be used to evaluate the encapsulation of RNA by the transfer vehicle composition. […] The fluorescence intensity can be measured using a fluorescence plate reader (Wallac Victor 1420 Multilablel Counter; Perkin Elmer, Waltham, MA) at an excitation wavelength of, for example, about 480 nm and an emission wavelength of, for example, about 520 nm. The fluorescence values of the reagent blank are subtracted from that of each of the samples and the percentage of free RNA is determined by dividing the fluorescence intensity of the intact sample (without addition of Triton X-100) by the fluorescence value of the disrupted sample (caused by the addition of Triton X-100). […]

[3] = LNP particle size (Z-average) and polydispersity index by dynamic light scattering; assay type: physicochemical; settings: LNPs with circular RNA, named by ionizable lipid; for Z-Average(nm): in PBS pH 7.4
Description: The microfluidic chamber is cleaned with ethanol and neMYSIS syringe pumps are prepared by loading a syringe with the RNA solution and another syringe with the ethanolic lipid. Both syringes are loaded and under the control of neMESYS software. The solutions are then applied to the mixing chip at an aqueous to organic phase ratio of 2 and a total flow rate of 22 ml/min (14.67 ml/min for RNA and 7.33 ml/min for the lipid solution. Both pumps are started synchronously. The mixer solution that flowed from the microfluidic chip is collected in 4×1 ml fractions with the first fraction being discarded as waste. The remaining solution containing the circRNA-transfer vehicles is exchanged by using G-25 mini desalting columns to 10 mM Tris-HCl, 1 mM EDTA, at pH 7.5, as described above. Following buffer exchange, the materials are characterized for size, and RNA entrapment through DLS analysis and Ribogreen assays, respectively.
(§1) Dialyzed LNPs were filtered using 0.2 μm filter. Prior to in vivo dosing, LNPs were diluted in PBS. LNP sizes were determined by dynamic light scattering. A cuvette with 1 mL of 20 μg/mL LNPs in PBS (pH 7.4) was measured for Z-average using the Malvern Panalytical Zetasizer Pro. The Z-average and polydispersity index were recorded.
as §1

[4] = In vivo FLuc expression by IVIS (whole body and organs) after LNP-circRNA dosing; parameters: species or system CD-1 or c57BL/6J mice; settings: mice, 0.5 mg/kg luciferase circRNA LNP i.v., named by ionizable lipid
Description: Circular or linear RNA encoding FLuc was generated and loaded into transfer vehicles with the following formulation: 50% ionizable Lipid 10b-15 represented by
10% DSPC, 1.5% PEG-DMG, 38.5% cholesterol. CD-1 mice were dosed at 0.2 mg/kg and luminescence was measured at 6 hours (live IVIS) and 24 hours (live IVIS and ex vivo IVIS). Total Flux (photons/second over a region of interest) of the liver, spleen, kidney, lung, and heart was measured (FIGS. 25 and 26).
Female CD-1 or female c57BL/6J mice ranging from 22-25 g were dosed at 0.5 mg/kg RNA intravenously. Six hours after injection, mice were injected intraperitoneally with 200 μL of D-luciferin at 15 mg/mL concentration. 5 minutes after injection, mice were anesthetized using isoflurane, and placed inside the IVIS Spectrum In Vivo Imaging System (Perkin Elmer) with dorsal side up. Post 10 minutes injection, mice were scanned for luminescence. Mice were euthanized and organs were extracted within 25 minutes of luciferin injection to scan for luminescence in liver, spleen, kidneys, lungs, and heart. Images (FIGS. 33A-B, 34A-B, 35A-B) were analyzed using Living Images (Perkin Elmer) software. Regions of interest were drawn to obtain flux and average radiance and analyzed for biodistribution of protein expression (FIG. 32A-B).

splenic immune cells = test: Cre circRNA LNP transfection of splenic immune cells in Ai9 Cre reporter mice (tdTomato); assay type: in vivo; settings: 0.5 mg/kg Cre circRNA LNP i.v., 48 hr, named by ionizable lipid
Description: Circular RNAs encoding Cre recombinase (Cre) are encapsulated into lipid nanoparticles as previously described. Female, 6-8 week old B6.Cg-Gt(ROSA)26Sortm9(CAG-tdTomato)Hze/J (Ai9) mice were dosed with lipid nanoparticles at 0.5 mg/kg RNA intravenously. Fluorescent tdTomato protein was transcribed and translated in Ai9 mice upon Cre recombination, meaning circular RNAs have been delivered to and translated in tdTomato+ cells. After 48 hr, mice were euthanized and the spleens were harvested, processed into a single cell suspension, and stained with various fluorophore-conjugated antibodies for immunophenotyping via flow cytometry.
Ai9 mice (B6.Cg-Gt(ROSA)26Sortm9(CAG-tdTomato)Hze/J, female, 6-8 weeks, n=3 per group) were injected i.v. with 0.5 mg/kg Cre circRNA LNPs or PBS. Ai9 mice transcribe and translate the fluorescent reporter tdTomato upon Cre recombination; meaning cells which are tdTomato+ have successfully been transfected with Cre circRNA. […] Flow cytometry was performed using an Attune Nxt Flow Cytometer (Thermo).

1C1C7 cells = test: Anti-murine CD19 CAR expression in lipotransfected 1C1C7 cells; assay type: cell-based; settings: 24 hours after lipotransfection, circRNA named by IRES source virus
Description: After 24 hours, 1C1C7 cells were incubated with His-tagged recombinant murine CD19 (Sino Biological) protein, then stained with a secondary anti-His antibody. Afterwards, the cells were analyzed via flow cytometry.

Row | Molecule | RNA Entrapment(%) [2] [%] | PDI [3] | Z-Average(nm) [3] [nm] | other results
1 | CCCCCCCCOC(=O)CCCCCCCCCN(CCCCCCCCCC(=O)OCCCCCCCC)CCN(C)C [Lipid I-13] |  |  |  | pKa ([1]; Table 1, Representative Lipids of Formula I): 6.15
2 | CCCCCCCCCCCCCCSCCOC(=O)CCN(CCCn1ccnc1C)CCC(=O)OCCSCCCCCCCCCCCCCC [Lipid 22-S14, bis(2-(tetradecylthio)ethyl) 3,3′-((3-(2-methyl-1H-imidazol-1-yl)propyl)azanediyl)dipropionate] | 97 | 0.05 | 64 | 
3 | CCCCCCCCC(CCCCCCCC)COC(=O)CCCCN(CCCCO)CCCCC(=O)OCC(CCCCCCCC)CCCCCCCC [III-15] |  |  |  | pKa ([1]; Table 3, Representative Compounds of Formula (III)): 6.14
4 | CCCCCCCCCOC(=O)CCCCCCCN(CCO)CCCCCCCC(=O)OC(CCCCCCCC)CCCCCCCC [Lipid 10b-15] |  |  |  | ex vivo IVIS tissue expression and spleen to liver ratio [4]: maintaining the desired spleen to liver ratios; splenic immune cells expressing tdTomato (splenic immune cells): effective at delivering circular RNAs to many splenic immune cell subsets
5 | CCCCCCCCCCCCCCSCCOC(=O)CCN(CCCn1ccnc1)CCC(=O)OCCSCCCCCCCCCCCCCC [Lipid 93-S14, bis(2-(tetradecylthio)ethyl) 3,3′-((3-(1H-imidazol-1-yl)propyl)azanediyl)dipropionate] | 95 | 0.04 | 74 | 
6 | CCCCCCCCC(CCCCCC)C(=O)OCCCCCCN(CCCCCCOC(=O)C(CCCCCC)CCCCCCCC)CCCn1ccnc1 (stereo not shown) [Lipid 10a-26, ((3-(1H-imidazol-1-yl)propyl)azanediyl)bis(hexane-6,1-diyl) bis(2-hexyldecanoate)] | 96 | 0.04 | 84 | whole-body total flux (IVIS) ([4]; 6 hours): increased whole-body total flux; ex vivo IVIS tissue expression and spleen to liver ratio [4]: increased overall expression
7 | B1 |  |  |  | anti-mouse CD19 CAR expression (1C1C7 cells): capable of driving expression of an anti-mouse CD19 CAR
